Laboratory results published in PubChem BioAssay AID1033 (Sanford-Burnham Center for Chemical Genomics, 2008).
Activity calls are given as the source filed them. How the calls were made is not given here.

Each compound was assayed against Chaperone protein DnaK (Escherichia coli (strain K12)) (UniProt P0A6Y8) (assay: E. coli DnaK SBD ligand binding – biophysical, NMR, chaperone (AID 1033)). Conditions: Purified DnaK SBD.
Chaperone protein DnaK (Escherichia coli (strain K12)), sequence (P0A6Y8 whole entry, looked up): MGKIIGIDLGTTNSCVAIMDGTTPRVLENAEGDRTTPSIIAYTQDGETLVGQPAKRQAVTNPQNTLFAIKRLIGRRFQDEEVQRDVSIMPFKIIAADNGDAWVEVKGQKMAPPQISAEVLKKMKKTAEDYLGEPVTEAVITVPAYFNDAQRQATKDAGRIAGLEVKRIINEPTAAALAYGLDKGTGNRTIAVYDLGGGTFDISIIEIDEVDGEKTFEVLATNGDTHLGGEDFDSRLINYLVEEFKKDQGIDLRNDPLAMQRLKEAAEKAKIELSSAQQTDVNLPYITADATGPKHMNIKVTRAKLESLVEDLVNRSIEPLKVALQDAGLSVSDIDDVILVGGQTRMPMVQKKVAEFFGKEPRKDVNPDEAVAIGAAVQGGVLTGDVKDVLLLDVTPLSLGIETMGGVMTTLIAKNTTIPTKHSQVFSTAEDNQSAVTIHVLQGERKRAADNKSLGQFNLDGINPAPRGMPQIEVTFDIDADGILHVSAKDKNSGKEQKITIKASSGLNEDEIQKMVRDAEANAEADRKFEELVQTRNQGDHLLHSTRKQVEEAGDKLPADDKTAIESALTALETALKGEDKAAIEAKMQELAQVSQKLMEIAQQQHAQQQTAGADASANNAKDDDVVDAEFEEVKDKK

SMILES	Kd
O=C(O)c1cc(O)c(O)c(O)c1	> 4 mM (inactive)
O=c1c2ccccc2[nH]c2ncccc12	> 4 mM (inactive)
CCN(CC)S(=O)(=O)c1ccc(F)cc1	> 4 mM (inactive)
Cn1cnnc1SCCCNC(=O)Nc1ncccn1	> 4 mM (inactive)
CSc1nc(C)cc(Oc2ccc(=O)n(C)n2)n1	> 4 mM (inactive)
CCn1ccc(C(=O)Nc2nccs2)n1	> 4 mM (inactive)
NC(=O)c1ccc(NC(=O)C2CC2)cc1	> 4 mM (inactive)
Nc1ccc(S(=O)(=O)N2CCCCC2)cc1	> 4 mM (inactive)
Cc1cc(C)n(S(=O)(=O)c2ccc(C)c(C)c2C)n1	> 4 mM (inactive)
CN1CCN(CC(=O)N2CCc3ccccc32)CC1	> 4 mM (inactive)
NCc1ccc2sccc2c1	> 4 mM (inactive)
COc1ccccc1NC(=O)CCC(=O)O	> 4 mM (inactive)
CS(=O)(=O)CCCCN=C=S	> 4 mM (inactive)
CC1=C2C(O)C(=O)OC3CC4C(C)(C)C(=O)C=C[C@]4(C)C(CC1)[C@]23C (some centres not stated)	> 4 mM (inactive)
Cc1cc2c(nn1)CCc1nonc1-2	> 4 mM (inactive)
Cc1nnsc1C(=O)O	> 4 mM (inactive)
CCNC(CC(=O)Nc1ccc(F)cc1)C(=O)O (configuration not stated)	> 4 mM (inactive)
Nc1ccccc1N1CCOCC1	> 4 mM (inactive)
Cn1cnc2c(cnn2-c2ccccc2)c1=O	> 4 mM (inactive)
N#Cc1cnc(N2CCCCC2)nc1N	> 4 mM (inactive)
CC(C)NC(=O)c1nc2ccccc2s1	> 4 mM (inactive)
Clc1ccc(-c2nnc3ccccn23)cc1	> 4 mM (inactive)
O=C(O)/C=C1\NC(=O)c2ccccc21	> 4 mM (inactive)
NC(CCC(=O)Nc1ccc([N+](=O)[O-])cc1)C(=O)O (configuration not stated)	> 4 mM (inactive)

SMILES	Kd
c1ccc(-n2ncc3c(NCc4ccco4)ncnc32)cc1	> 4 mM (inactive)
O=C(O)CCn1cncn1	> 4 mM (inactive)
CC(=O)c1cnc2nc(C(F)(F)F)nn2c1C	> 4 mM (inactive)
OCc1cccc2c1OCCO2	> 4 mM (inactive)
Nc1ncnc2c1ncn2C1O[C@H](COP(=O)(O)O)[C@@H](O)[C@H]1O (some centres not stated)	> 4 mM (inactive)
C=C1C2CC[C@@]3(C)[C@H](c4ccoc4)OC(=O)C[C@]13O[C@H]1CC(=O)C(C)(C)[C@H](C(O)C(=O)OC)[C@@]21C (some centres not stated)	> 4 mM (inactive)
Oc1cnc2ccccc2c1CN1CCOCC1	> 4 mM (inactive)
NCc1ccc(S(=O)(=O)O)cc1	> 4 mM (inactive)
Cc1ccc(S(=O)(=O)CC(=O)N(C)C)cc1	> 4 mM (inactive)
O=C(O)CSCc1ccc(Cl)cc1	> 4 mM (inactive)
OCc1ncoc1-c1ccccc1	> 4 mM (inactive)
O=C(Nc1cccnc1)N1CCOCC1	> 4 mM (inactive)
Cc1cc(O)c(NC(=O)c2ccco2)cc1C	> 4 mM (inactive)
Nc1ncccc1OCc1ccccc1	> 4 mM (inactive)
CC(=O)c1ccc(Cc2cnc(N)s2)cc1	> 4 mM (inactive)
Oc1cc(O)c2c(c1)O[C@H](c1ccc(O)c(O)c1)[C@H](O)C2	> 4 mM (inactive)
CC(=O)Nc1nnc(-c2ccccc2)o1	> 4 mM (inactive)
Cc1oc(-c2ccccc2)nc1CCO	> 4 mM (inactive)
COc1c2c(cc3occ(-c4ccc5c(c4)OCO5)c(=O)c13)OC(C)(C)C=C2	> 4 mM (inactive)
Nc1cccc(NC(=O)c2ccco2)c1	> 4 mM (inactive)
Cc1cc(C)c(NC(=O)CN2CCC(O)CC2)c(C)c1	> 4 mM (inactive)
CC(=O)OC/C=C(\C)CC/C=C(\C)CC/C=C(\C)CC/C=C(\C)CC/C=C(\C)CC/C=C(\C)CC/C=C(\C)CC/C=C(\C)CCC=C(C)C	> 4 mM (inactive)
N#Cc1ccccc1CSc1ccccn1	> 4 mM (inactive)
O=C1CCC(=O)N1c1ccc(O)cc1	> 4 mM (inactive)

SMILES	Kd
Cc1nc(N2CCOCC2)[nH]c(=O)c1C	> 4 mM (inactive)
C[C@@H]1O[C@@H](O[C@H]2C[C@@H](O)[C@]3(CO)C4C(CC[C@]3(O)C2)[C@@]2(O)CC[C@H](C3=CC(=O)OC3)[C@@]2(C)C[C@H]4O)[C@H](O)[C@H](O)[C@H]1O (some centres not stated)	> 4 mM (inactive)
Cc1[nH]ccc2c1[nH]c1cc(=O)ccc12	> 4 mM (inactive)
CC(=O)O[C@@H]1CC2C(C)(CC[C@H](O)C2(C)C)C2CC[C@]3(C)C(=CC(=O)O[C@H]3c3ccoc3)C21C (some centres not stated)	> 4 mM (inactive)
CCOC(=O)C1CN(C)CCN1C (configuration not stated)	> 4 mM (inactive)
Cc1n[nH]c(C)c1CC(=O)O	> 4 mM (inactive)
Nc1ccc2c(c1)C(=O)OC2	> 4 mM (inactive)
CC(=O)OC1CC[C@@]2(C)C(CCC3C2CC[C@]2(C)C(C4=CC(=O)OC4)C(OC(C)=O)CC32O)C1 (some centres not stated)	> 4 mM (inactive)
CC1(C)CC2C1CCC1(C)OC1CCC2(C)O (configuration not stated)	> 4 mM (inactive)
CC1=C(C(N)=O)C(c2cccs2)C(C(N)=O)=C(C)N1	> 4 mM (inactive)
O=C(O)C1CSC2(CCCCC2)N1 (configuration not stated)	> 4 mM (inactive)
CN(C)N1C(=O)C2CCCCC2C1=O (configuration not stated)	> 4 mM (inactive)
COc1cc(OC)c2c(=O)c(O)c(-c3ccc(OC)c(OC)c3)oc2c1	> 4 mM (inactive)
Cc1nc2[nH]onc2c2nccc(=O)c12	> 4 mM (inactive)
CC(=O)Oc1c2c(c3c(c1CC=C(C)C)O[C@]14C(=C[C@@H]5CC1C(C)(C)OC4(C/C=C(\C)C(=O)O)C5=O)C3=O)OC(C)(CCC=C(C)C)C=C2 (some centres not stated)	> 4 mM (inactive)
CC1=[N+]([O-])C2(N)CCc3c(no[n+]3[O-])C2(O)C1 (configuration not stated)	> 4 mM (inactive)
CC(=O)OCC(=O)[C@@]1(O)CCC2C3CC[C@@H]4C[C@H](O)CC[C@]4(C)C3C(=O)C[C@@]21C (some centres not stated)	> 4 mM (inactive)
NN1C(=O)/C(=C/c2ccc(O)c(O)c2)SC1=S	> 4 mM (inactive)
COc1cccc(N2CCNCC2)c1	> 4 mM (inactive)
Cc1ccc(NC(=O)C2CCCNC2=O)nc1 (configuration not stated)	> 4 mM (inactive)
Cc1nnc(NCc2ccc3c(c2)OCO3)[nH]c1=O	> 4 mM (inactive)
CCc1ccc(C(=O)N2CCCC2)s1	> 4 mM (inactive)
CC(=O)Nc1ccc(Nc2nnc(C)c(=O)[nH]2)cc1	> 4 mM (inactive)
O=C(O)c1ccc(N2CCCCC2)cc1	> 4 mM (inactive)

SMILES	Kd
CCCCN1C(=O)C2CC/C(=N/O)CC2C1=O (configuration not stated)	> 4 mM (inactive)
c1coc(-c2nc(-c3ccncc3)no2)c1	> 4 mM (inactive)
Cc1cc(=O)[nH]c(NCC(=O)O)n1	> 4 mM (inactive)
CC(=O)N1C(=S)NC(=O)/C1=C\c1cccnc1	> 4 mM (inactive)
CN1CCN(C(=O)c2ccco2)CC1	> 4 mM (inactive)
CC(C)c1c(O)ccc2c1CCC1C(C)(C)CCC[C@]21C (some centres not stated)	> 4 mM (inactive)
O=C(c1ccco1)N1C(=O)c2cccc3cccc1c23	> 4 mM (inactive)
NC(=O)CNC(=O)c1ccccc1	> 4 mM (inactive)
Cc1ccccc1-n1c(-c2cccnc2)n[nH]c1=S	> 4 mM (inactive)
O=C(Nn1cnnc1)c1ccccc1-c1ccccc1	> 4 mM (inactive)
O=C1CSC(c2ccccc2)N1 (configuration not stated)	> 4 mM (inactive)
Cn1nnc2cc(C(=O)N3CCSCC3)ccc21	> 4 mM (inactive)
Cc1occc1C(=O)Nc1sccc1C(N)=O	> 4 mM (inactive)
O=C(Cn1cnc2ccccc2c1=O)N1CCOCC1	> 4 mM (inactive)
CN(C)c1nc(N)nc(-c2nc3ccccc3s2)n1	> 4 mM (inactive)
COc1ccccc1-c1cn[nH]c(=S)n1	> 4 mM (inactive)
Cc1occc1C(=O)Nc1nccs1	> 4 mM (inactive)
C[C@@H]1O[C@@H](O[C@H]2[C@@H](Oc3cc(O)c4c(c3)O[C@H](c3ccc(O)cc3)CC4=O)O[C@H](CO)[C@@H](O)[C@@H]2O)[C@H](O)[C@H](O)[C@H]1O	> 4 mM (inactive)
COC(=O)c1sc(N)nc1C	> 4 mM (inactive)
C[C@]12C=CC(=O)C=C1CCC1C2CC[C@]2(C)C(=O)CCC12 (some centres not stated)	> 4 mM (inactive)
Cc1cc(N)on1	> 4 mM (inactive)
CN(C)Cc1c(N)cccc1O	> 4 mM (inactive)
CS(=O)(=O)c1ccccc1C(=O)Nc1nccs1	> 4 mM (inactive)
O=C(Nc1ccccc1F)c1ccncc1	> 4 mM (inactive)

SMILES	Kd
Cc1cc(C)cc(C(=O)N2CCC(C(N)=O)CC2)c1	> 4 mM (inactive)
Cc1nc2c(=O)[nH]c3ccccc3c2o1	> 4 mM (inactive)
CNC(=O)n1ccc(C(=O)N2CCCCC2)n1	> 4 mM (inactive)
NC1=C(c2ccccc2)C(=O)c2ccccc21	> 4 mM (inactive)
OC1CCN(C(=S)NC2CC2)CC1	> 4 mM (inactive)
O=C(c1ccc(F)cc1)N1CCOCC1	> 4 mM (inactive)
OCc1ccc(-c2ccccn2)s1	> 4 mM (inactive)
Cc1cccc(CSc2nncc(=O)[nH]2)c1	> 4 mM (inactive)
CCSc1nnc(-c2ccccc2N)c(=O)[nH]1	> 4 mM (inactive)
C[C@H]1O[C@@H](O[C@H]2[C@@H](O)C[C@H](O[C@H]3[C@@H](O)C[C@H](O[C@H]4CC[C@]5(C)C6C[C@@H](O)[C@]7(C)[C@@H](C8=CC(=O)OC8)CC[C@]7(O)C6CC[C@@H]5C4)O[C@@H]3C)O[C@@H]2C)C[C@H](O)[C@@H]1O (some centres not stated)	> 4 mM (inactive)
OCC(O)C(O)C(O)CO (configuration not stated)	> 4 mM (inactive)
Cc1nn(C)c(Cl)c1S(=O)(=O)N1CCOCC1	> 4 mM (inactive)
OCc1nccn1Cc1ccccc1	> 4 mM (inactive)
Cc1ccc(CN2CCN(C(=O)C3CCC3)CC2)cc1	> 4 mM (inactive)
Cn1c(=O)cc(N2CCCCC2)[nH]c1=O	> 4 mM (inactive)
Nc1nnc(SCc2ccc3c(c2)OCO3)s1	> 4 mM (inactive)
Cc1nnsc1C(=O)N(C)c1ccccc1	> 4 mM (inactive)
O=C(Nc1ccncc1)c1cncc(Br)c1	> 4 mM (inactive)
O=C(Nn1cnnc1)c1csc2c1CCCC2	> 4 mM (inactive)
Cc1ccccc1NS(=O)(=O)c1ccc(F)cc1	0.2 mM
Cc1cc(=O)n2[nH]c(N)nc2n1	> 4 mM (inactive)
